# ChEMBL document CHEMBL1201862, “PubChem BioAssay data set” (2004)
#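 Five compound concentrations were applied to cells in 96-well plates for 48 hours; endpoints were derived by simple linear interpolation of the resulting dose-response curve. At the GI50, growth is halved.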 Activity calls are given as the source filed them. Rule as the data show it: active = GI50 up to about 1.1 µM and inactive = higher.
# Experiments:
# Test in all cases: NCI-60 cell line screen, 48 h
# [1] = tested on: SF-268
# [2] = tested on: RPMI-8226
# [3] = tested on: XF498
# [4] = tested on: ACHN
# [5] = tested on: DLD-1
# [6] = tested on: SR
# [7] = tested on: TK-10
# [8] = tested on: UACC-62
# [9] = tested on: IGROV-1
# [10] = tested on: A549
# [11] = tested on: SK-MEL-5
# [12] = tested on: HT-29
# [13] = tested on: KM12
# [14] = tested on: KM-20L2
# [15] = tested on: SW-620
# [16] = tested on: A498
# [17] = tested on: RXF 631
# [18] = tested on: HL-60
# [19] = tested on: NCI-H460
# [20] = tested on: CCRF-CEM
# [21] = tested on: 786-0
# [22] = tested on: HOP-18
# [23] = tested on: CAKI-1
# [24] = tested on: MOLT-4
# [25] = tested on: OVCAR-3
# [26] = tested on: COLO 205
# [27] = tested on: SK-MEL-28
# [28] = tested on: HOP-92
# [29] = tested on: HCT-15
# [30] = tested on: NCI-H226
# [31] = tested on: SF-295
# [32] = tested on: SNB-75
# [33] = tested on: Malme-3M
# [34] = tested on: SN12C
# [35] = tested on: U-251
# [36] = tested on: LXFL 529
# [37] = tested on: K562
# [38] = tested on: OVCAR-5
# [39] = tested on: EKVX
# [40] = tested on: HCT-116
# [41] = tested on: UACC-257
# [42] = tested on: NCI-H522
# [43] = tested on: SNB-19
# [44] = tested on: UO-31
# [45] = tested on: M14
# [46] = tested on: DMS-273
# [47] = tested on: NCI-H23
# [48] = tested on: OVCAR-4
# [49] = tested on: SK-MEL-2
# [50] = tested on: OVCAR-8
# [51] = tested on: HOP-62
# [52] = tested on: SF-539
# [53] = tested on: M19-MEL
compound,measurement,setting,value
CC1=C(c2cc(C(=O)Nc3nccs3)nc(NC#N)n2)Sc2ccccc2N1,GI50,[1],> 100 µM (inactive)
same,GI50,[2],> 100 µM (inactive)
same,GI50,[3],> 100 µM (inactive)
same,GI50,[4],> 100 µM (inactive)
same,GI50,[5],> 100 µM (inactive)
same,GI50,[6],> 100 µM (inactive)
same,GI50,[7],> 100 µM (inactive)
same,GI50,[8],> 100 µM (inactive)
same,GI50,[9],> 100 µM (inactive)
same,GI50,[10],> 100 µM (inactive)
same,GI50,[11],> 100 µM (inactive)
same,GI50,[12],> 100 µM (inactive)
same,GI50,[13],> 100 µM (inactive)
same,GI50,[14],> 100 µM (inactive)
same,GI50,[15],> 100 µM (inactive)
same,GI50,[16],> 100 µM (inactive)
same,GI50,[17],> 100 µM (inactive)
same,GI50,[18],> 100 µM (inactive)
same,GI50,[19],> 100 µM (inactive)
same,GI50,[20],79.1 µM (inactive)
same,GI50,[21],> 100 µM (inactive)
same,GI50,[22],> 100 µM (inactive)
same,GI50,[23],> 100 µM (inactive)
same,GI50,[24],> 100 µM (inactive)
same,GI50,[25],> 100 µM (inactive)
same,GI50,[26],> 100 µM (inactive)
same,GI50,[27],> 100 µM (inactive)
same,GI50,[28],> 100 µM (inactive)
same,GI50,[29],65.3 µM
same,GI50,[30],> 100 µM (inactive)
same,GI50,[31],> 100 µM (inactive)
same,GI50,[32],87.3 µM (inactive)
same,GI50,[33],> 100 µM (inactive)
same,GI50,[34],> 100 µM (inactive)
same,GI50,[35],> 100 µM (inactive)
same,GI50,[36],> 100 µM (inactive)
same,GI50,[37],> 100 µM (inactive)
same,GI50,[38],> 100 µM (inactive)
same,GI50,[39],> 100 µM (inactive)
same,GI50,[40],> 100 µM (inactive)
same,GI50,[41],> 100 µM (inactive)
same,GI50,[42],> 100 µM (inactive)
same,GI50,[43],> 100 µM (inactive)
same,GI50,[44],> 100 µM (inactive)
same,GI50,[45],> 100 µM (inactive)
same,GI50,[46],> 100 µM (inactive)
same,GI50,[47],> 100 µM (inactive)
same,GI50,[48],> 100 µM (inactive)
same,GI50,[49],> 100 µM (inactive)
same,GI50,[50],> 100 µM (inactive)
same,GI50,[51],> 100 µM (inactive)
same,GI50,[52],> 100 µM (inactive)
same,GI50,[53],> 100 µM (inactive)
